From ChEMBL document CHEMBL1201862, “PubChem BioAssay data set” (2004)
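Five compound concentrations were applied to cells in 96-well plates for 48 hours; endpoints were derived by simple linear interpolation of the resulting dose-response curve. GI50 = concentration required for 50% inhibition of growth.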 Calls of active or inactive are those of the source. Cut-off read from the data, not from the text of the source: active = GI50 up to about 1.1 µM and inactive = higher.

How the values were obtained:
Test in all cases: NCI tumour cell line growth inhibition, 48 h
HL-60 = system: HL-60
CCRF-CEM = system: CCRF-CEM
SW-620 = system: SW-620
COLO 205 = system: COLO 205
SN12C = system: SN12C
Malme-3M = system: Malme-3M
IGROV-1 = system: IGROV-1
OVCAR-8 = system: OVCAR-8
SNB-78 = system: SNB-78
M14 = system: M14
UO-31 = system: UO-31
M19-MEL = system: M19-MEL
OVCAR-5 = system: OVCAR-5
LOX IMVI = system: LOX IMVI
DLD-1 = system: DLD-1
UACC-257 = system: UACC-257
DMS-114 = system: DMS-114
NCI-H460 = system: NCI-H460
DMS-273 = system: DMS-273
RXF 393 = system: RXF 393
U-251 = system: U-251
HCT-116 = system: HCT-116
SR = system: SR
SK-OV-3 = system: SK-OV-3
CAKI-1 = system: CAKI-1
NCI-H226 = system: NCI-H226
786-0 = system: 786-0
KM12 = system: KM12
SK-MEL-2 = system: SK-MEL-2
A549 = system: A549
HOP-62 = system: HOP-62
HOP-92 = system: HOP-92
SF-539 = system: SF-539
RPMI-8226 = system: RPMI-8226
HT-29 = system: HT-29
SNB-75 = system: SNB-75
ACHN = system: ACHN
SF-295 = system: SF-295
SNB-19 = system: SNB-19
LXFL 529 = system: LXFL 529
TK-10 = system: TK-10
KM-20L2 = system: KM-20L2
HOP-18 = system: HOP-18
SK-MEL-28 = system: SK-MEL-28
NCI-H522 = system: NCI-H522
MOLT-4 = system: MOLT-4
NCI-H23 = system: NCI-H23
K562 = system: K562
SK-MEL-5 = system: SK-MEL-5
OVCAR-4 = system: OVCAR-4
UACC-62 = system: UACC-62
SF-268 = system: SF-268
OVCAR-3 = system: OVCAR-3
HCT-15 = system: HCT-15
HCC 2998 = system: HCC 2998
EKVX = system: EKVX
A498 = system: A498

Structure (SMILES): O=C(c1ccc(Cl)cc1)N(C(=S)N1CCN(c2ccccc2)CC1)C1CCCCC1
- GI50 (HL-60): 94.6 µM (inactive)
- GI50 (CCRF-CEM): > 100 µM (inactive)
- GI50 (SW-620): > 100 µM (inactive)
- GI50 (COLO 205): > 100 µM (inactive)
- GI50 (SN12C): > 100 µM (inactive)
- GI50 (Malme-3M): > 100 µM (inactive)
- GI50 (IGROV-1): > 100 µM (inactive)
- GI50 (OVCAR-8): > 100 µM (inactive)
- GI50 (SNB-78): > 100 µM (inactive)
- GI50 (M14): > 100 µM (inactive)
- GI50 (UO-31): > 100 µM (inactive)
- GI50 (M19-MEL): > 100 µM (inactive)
- GI50 (OVCAR-5): > 100 µM (inactive)
- GI50 (LOX IMVI): 79.4 µM (inactive)
- GI50 (DLD-1): > 100 µM (inactive)
- GI50 (UACC-257): 91.2 µM (inactive)
- GI50 (DMS-114): 70 µM (inactive)
- GI50 (NCI-H460): > 100 µM (inactive)
- GI50 (DMS-273): 46.9 µM (inactive)
- GI50 (RXF 393): > 100 µM (inactive)
- GI50 (U-251): > 100 µM (inactive)
- GI50 (HCT-116): 45.7 µM (inactive)
- GI50 (SR): 67.6 µM (inactive)
- GI50 (SK-OV-3): > 100 µM (inactive)
- GI50 (CAKI-1): > 100 µM (inactive)
- GI50 (NCI-H226): 1.03 µM (active)
- GI50 (786-0): > 100 µM (inactive)
- GI50 (KM12): > 100 µM (inactive)
- GI50 (SK-MEL-2): > 100 µM (inactive)
- GI50 (A549): > 100 µM (inactive)
- GI50 (HOP-62): > 100 µM (inactive)
- GI50 (HOP-92): > 100 µM (inactive)
- GI50 (SF-539): > 100 µM (inactive)
- GI50 (RPMI-8226): 63.5 µM (inactive)
- GI50 (HT-29): > 100 µM (inactive)
- GI50 (SNB-75): 85.3 µM (inactive)
- GI50 (ACHN): > 100 µM (inactive)
- GI50 (SF-295): > 100 µM (inactive)
- GI50 (SNB-19): > 100 µM (inactive)
- GI50 (LXFL 529): > 100 µM (inactive)
- GI50 (TK-10): > 100 µM (inactive)
- GI50 (KM-20L2): > 100 µM (inactive)
- GI50 (HOP-18): > 100 µM (inactive)
- GI50 (SK-MEL-28): > 100 µM (inactive)
- GI50 (NCI-H522): > 100 µM (inactive)
- GI50 (MOLT-4): 54.2 µM (inactive)
- GI50 (NCI-H23): > 100 µM (inactive)
- GI50 (K562): 58.2 µM (inactive)
- GI50 (SK-MEL-5): > 100 µM (inactive)
- GI50 (OVCAR-4): > 100 µM (inactive)
- GI50 (UACC-62): > 100 µM (inactive)
- GI50 (SF-268): > 100 µM (inactive)
- GI50 (OVCAR-3): > 100 µM (inactive)
- GI50 (HCT-15): > 100 µM

Structure (SMILES): CCNc1c(C(=O)N(CC)CC)c(=O)[nH]c2ncccc12
- GI50 (HL-60): > 100 µM (inactive)
- GI50 (CCRF-CEM): > 100 µM (inactive)
- GI50 (SW-620): > 100 µM (inactive)
- GI50 (COLO 205): > 100 µM (inactive)
- GI50 (SN12C): > 100 µM (inactive)
- GI50 (Malme-3M): > 100 µM (inactive)
- GI50 (HCC 2998): > 100 µM (inactive)
- GI50 (EKVX): > 100 µM (inactive)
- GI50 (IGROV-1): > 100 µM (inactive)
- GI50 (OVCAR-8): > 100 µM (inactive)
- GI50 (SNB-78): > 100 µM (inactive)
- GI50 (M14): > 100 µM (inactive)
- GI50 (UO-31): > 100 µM (inactive)
- GI50 (M19-MEL): > 100 µM (inactive)
- GI50 (OVCAR-5): > 100 µM (inactive)
- GI50 (LOX IMVI): > 100 µM (inactive)
- GI50 (DLD-1): > 100 µM (inactive)
- GI50 (UACC-257): > 100 µM (inactive)
- GI50 (DMS-114): > 100 µM (inactive)
- GI50 (NCI-H460): > 100 µM (inactive)
- GI50 (DMS-273): > 100 µM (inactive)
- GI50 (RXF 393): > 100 µM (inactive)
- GI50 (U-251): > 100 µM (inactive)
- GI50 (HCT-116): > 100 µM (inactive)
- GI50 (SK-OV-3): > 100 µM (inactive)
- GI50 (CAKI-1): > 100 µM (inactive)
- GI50 (NCI-H226): > 100 µM (inactive)
- GI50 (786-0): > 100 µM (inactive)
- GI50 (KM12): > 100 µM (inactive)
- GI50 (SK-MEL-2): > 100 µM (inactive)
- GI50 (A549): > 100 µM (inactive)
- GI50 (HOP-62): > 100 µM (inactive)
- GI50 (HOP-92): > 100 µM (inactive)
- GI50 (SF-539): > 100 µM (inactive)
- GI50 (RPMI-8226): > 100 µM (inactive)
- GI50 (HT-29): > 100 µM (inactive)
- GI50 (SNB-75): > 100 µM (inactive)
- GI50 (ACHN): > 100 µM (inactive)
- GI50 (SF-295): > 100 µM (inactive)
- GI50 (SNB-19): > 100 µM (inactive)
- GI50 (LXFL 529): > 100 µM (inactive)
- GI50 (TK-10): > 100 µM (inactive)
- GI50 (KM-20L2): > 100 µM (inactive)
- GI50 (A498): > 100 µM (inactive)
- GI50 (SK-MEL-28): > 100 µM (inactive)
- GI50 (NCI-H522): > 100 µM (inactive)
- GI50 (MOLT-4): > 100 µM (inactive)
- GI50 (NCI-H23): > 100 µM (inactive)
- GI50 (K562): > 100 µM (inactive)
- GI50 (SK-MEL-5): > 100 µM (inactive)
- GI50 (OVCAR-4): > 100 µM (inactive)
- GI50 (UACC-62): > 100 µM (inactive)
- GI50 (SF-268): > 100 µM (inactive)
- GI50 (OVCAR-3): > 100 µM (inactive)
- GI50 (HCT-15): > 100 µM

Structure (SMILES): Cc1c2cc[n+](C)cc2c(C)c2c1[nH]c1ccc(OCC(F)(F)F)cc12
- GI50 (CCRF-CEM): 7.31 µM (inactive)
- GI50 (SW-620): 3.01 µM (inactive)
- GI50 (COLO 205): 0.94 µM (active)
- GI50 (SN12C): 0.164 µM (active)
- GI50 (Malme-3M): 1.77 µM (inactive)
- GI50 (HCC 2998): 7.14 µM (inactive)
- GI50 (IGROV-1): 2.77 µM (inactive)
- GI50 (OVCAR-8): 0.467 µM (active)
- GI50 (M19-MEL): 2.09 µM (inactive)
- GI50 (DLD-1): 1.36 µM (inactive)
- GI50 (DMS-114): 1.47 µM (inactive)
- GI50 (NCI-H460): 2.25 µM (inactive)
- GI50 (DMS-273): 1.49 µM (inactive)
- GI50 (U-251): 0.275 µM (active)
- GI50 (HCT-116): 3.37 µM (inactive)
- GI50 (SR): 3.37 µM (inactive)
- GI50 (SK-OV-3): 3.08 µM (inactive)
- GI50 (NCI-H226): 0.375 µM (active)
- GI50 (786-0): 0.38 µM (active)
- GI50 (KM12): 3.41 µM (inactive)
- GI50 (SK-MEL-2): 4.62 µM (inactive)
- GI50 (A549): 2.12 µM (inactive)
- GI50 (HOP-62): 0.771 µM (active)
- GI50 (HOP-92): 2.08 µM (inactive)
- GI50 (SF-539): 1.07 µM (active)
- GI50 (HT-29): 4.11 µM (inactive)
- GI50 (SF-295): 0.275 µM (active)
- GI50 (SNB-19): 0.718 µM (active)
- GI50 (LXFL 529): 0.447 µM (active)
- GI50 (KM-20L2): 3.98 µM (inactive)
- GI50 (HOP-18): 3.72 µM (inactive)
- GI50 (NCI-H522): 1.57 µM (inactive)
- GI50 (MOLT-4): 5.12 µM (inactive)
- GI50 (NCI-H23): 1.49 µM (inactive)
- GI50 (K562): 3.83 µM (inactive)
- GI50 (SK-MEL-5): 1.73 µM (inactive)
- GI50 (OVCAR-4): 4.61 µM (inactive)
- GI50 (UACC-62): 12.2 µM (inactive)
- GI50 (SF-268): 0.286 µM (active)
- GI50 (OVCAR-3): 4.72 µM (inactive)
